The results in this text go back to patent US10179761B2, “Compounds, pharmaceutical composition and their use in treating neurodegenerative diseases” (UNIVERSITE DE LILLE 2 DROIT ET SANTE, priority 2014, dated 2019).

Where “and” joins values, the source holds several entries; their conditions need not be identical. Identical values can stand only once. Like-named read-outs stand apart in the source and are kept apart here.

One experiment has as its target σ2 receptors (Homo sapiens (Human), UniProt Q5BJF2). In words: σ2 binding assay, Jurkat cell membranes, [3H]-DTG in presence of (+)-pentazocine. Particulars: read-out: Sigma 2 Ki. On the procedure: (§1) The σ binding assays were performed according to Ganapathy et al. (Ganapathy, M. E.; Prasad, P. D.; Huang, W.; Seth, P.; Leibach, F. H.; Ganapathy, V. Molecular and ligand-binding characterization of the sigma-receptor in the Jurkat human T lymphocyte cell line. J. Pharmacol. Exp. Ther. 1999, 289, 251-260). […] The σ2 binding assay was performed by incubating Jurkat cell membranes ([…] protein per tube) with [^3H]-DTG (25 nM) in presence of (+)-pentazocine (1 μM) to saturate σ1 receptors, and a range of concentrations of tested compounds, at room temperature for 1 hour in 5 mM Tris/HCl buffer (pH=7.4). The final assay volume was 0.5 mL. Binding was terminated by rapid filtration through Wathman GF/B filters, which were then washed with 5×1 mL ice-cold NaCl solution and allowed to dry before bound radioactivity was measured using liquid scintillation counting. Nonspecific binding was determined, in both assays, under similar conditions, but in presence of 10 μM unlabeled haloperidol. Inhibition constants (Ki) were calculated from the IC50 values according to the method of Cheng and Prusoff (Cheng, Y.; Prusoff, W. H. Relationship between the inhibition constant (Ki) and the concentration of inhibitor which causes 50 percent inhibition (IC50) of an enzymatic reaction. Biochem Pharmacol. 1973, 22 (23), 3099-108): […]

Experiment [1] has as its target T1, σ1 receptors (Homo sapiens (Human), UniProt Q99720). In words: σ1 binding assay, Jurkat cell membranes, [3H](+)-pentazocine. As to conditions: hydrochloride salts; mean of 2 or 3 independent experiments; Ki from IC50 (Cheng-Prusoff); read-out: Sigma 1 Ki.
The target of experiment [2] is T1, σ1 receptors. The description is as above. As to conditions: selectivity, Ki sigma 2 / Ki sigma 1. On the procedure:
as §1

In experiment [3] the test system is Male Swiss mice. Description: Dizocilpine-induced learning deficits: step-through passive avoidance test. Format: in vivo. As to conditions: NE-100 3 mg/kg + dizocilpine 0.15 mg/kg i.p. On the procedure: (§2) The activity of compound 3.1.10 was evaluated on the prevention of the dizocilpine-induced learning deficits measured using two behavioral tests. The present experiment tested if its anti-amnesic activity could be blocked by pretreatment with the reference sigma-1 receptor antagonist NE-100.
(§3) • Sixty (60) mice were used. Behavioral testing started one week after the arrival of the animals in the AMYLGEN animal facility. • 5 treatment groups were designed and used as follows:
(§4) • Vehicle 1 was physiological saline for dizocilpine, DMSO 2% in water for compound 3.1.10 • Animals were used at day 1 in the Y-maze test and at days 2 and 3 in the passive avoidance test, with training at day 2 and retention at day 3. • Test compounds, compound 3.1.10 and/or NE-100 were administered 10 min before dizocilpine (at 0.15 mg/kg i.p.) or vehicle. • Dizocilpine or vehicle 1 was administered 20 min before the Y-maze test session on day 1. • Dizocilpine or vehicle 1 was administered 20 min before the passive avoidance training session on day 2. Drugs were not injected before the retention session on day 3. • The whole experiment program was performed in a single serie experiment. • Treatments were randomized. 2.1.2. Animals
Male Swiss mice, 6 weeks old and weighing 30-35 g, from JANVIER (Saint Berthevin, France), were housed in groups with access to food and water ad libitum, except during experiments. […]
The apparatus is a two-compartments (15×20×15 cm high) box with one illuminated with white polyvinylchloride walls and the other darkened with black polyvinylchloride walls and a grid floor. […] The step-through latency (the latency spent to enter the dark compartment) and the number of vocalizations was recorded. […] The step-through latency was recorded up to 300 s. When the mouse entered the dark compartment or 300 s has elapsed (they were therefore manually placed in it), the escape latency (latency to exit from the dark compartment) was recorded up to 300 s.
They were therefore analyzed using a Kruskal-Wallis non-parametric ANOVA (H value), followed by a Dunn's multiple comparison test.

For experiment [4], the system named is Male Swiss mice. In words: Dizocilpine-induced learning deficits: spontaneous alternation in the Y-maze. Type of experiment: in vivo. As to conditions: NE-100 3 mg/kg + dizocilpine 0.15 mg/kg i.p. On the procedure:
as §2, §3, §4
Male Swiss mice, 6 weeks old and weighing 30-35 g, from JANVIER (Saint Berthevin, France), were housed in groups with access to food and water ad libitum, except during experiments. They were kept in a temperature and humidity controlled animal facility on a 12 h/12 h light:dark cycle (lights on at 7:00 am). […]
Animals were tested for spontaneous alternation performance in the Y-maze, an index of spatial working memory. […] The number of maximum alternations was therefore the total number of arm entries minus two and the percentage of alternation was calculated as: (actual alternations/maximum alternations)×100. […]
All values, except passive avoidance latencies, were expressed as mean±S.E.M. Statistical analyses were performed using two-way ANOVA (F value), with genotype and peptide treatment as independent factors, followed by a Dunn's post-hoc multiple comparison test.

The mark [5] stands for this setting: hydrochloride salts, mean of 2 or 3 independent experiments, Ki from IC50 (Cheng-Prusoff).

Sequence of σ2 receptors (Q5BJF2 whole entry): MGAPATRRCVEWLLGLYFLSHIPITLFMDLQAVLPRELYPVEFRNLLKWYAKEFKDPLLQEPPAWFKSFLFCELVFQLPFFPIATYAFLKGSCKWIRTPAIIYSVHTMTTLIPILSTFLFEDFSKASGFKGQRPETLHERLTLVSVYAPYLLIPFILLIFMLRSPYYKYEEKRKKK
T1 sequence (Q99720 whole entry): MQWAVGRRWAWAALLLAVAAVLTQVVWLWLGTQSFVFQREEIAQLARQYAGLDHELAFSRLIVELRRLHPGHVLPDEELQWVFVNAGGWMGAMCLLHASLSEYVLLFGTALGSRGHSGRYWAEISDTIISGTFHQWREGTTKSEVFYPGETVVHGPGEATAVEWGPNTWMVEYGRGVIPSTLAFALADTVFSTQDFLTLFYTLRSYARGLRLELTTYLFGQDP

What is called Ki is a measure of affinity in units of concentration, obtained from inhibition or displacement. Take `CN(CCC(=O)NCc1cccc(Cl)c1)Cc1ccccc1` [Compound 3.4e, N-(3-Chlorobenzyl)-3-(benzylmethylamino)propanamide]: the figures for the Ki at σ2 receptors and on σ1 receptors [1] were 200 nM and 0.63 nM, respectively. At σ1 receptors [2], the “Ratio σ2/σ1” value was 317.

`O=C(NCCCNCN1Cc2ccccc2C1)c1ccc(Cl)cc1` [Compound 3.1.15]: the Ki on σ1 receptors [1] worked out at 19 nM.

As for `CN(CCCNC(=O)c1ccc(F)cc1)Cc1ccccc1` [Compound 3.1.6, N-[3-(benzylmethylamino)propyl]-4-fluorobenzamide], the Ki on σ2 receptors (setting [5]) was 470 nM; on σ1 receptors [1], 20 nM. Also, at σ1 receptors [2], the “Ratio σ2/σ1” value is on record as 24.

In the case of `CN(CCNC(=O)c1ccc(Cl)cc1Cl)Cc1ccccc1` [Compound 3.1.34, N-(2-(benzyl(methyl)amino)ethyl)-2,4-dichlorobenzamide], the Ki on σ2 receptors (setting [5]) was found to be 110 nM; on σ1 receptors [1], 6.5 nM. The “Ratio σ2/σ1” value at σ1 receptors [2] stood at 17.

In the case of `CN(CCCNC(=O)c1ccc(Br)cc1F)Cc1ccccc1` [Compound 3.1.27, N-[3-(benzylmethylamino)propyl]-4-bromo-2-fluorobenzamide], at σ1 receptors [1], the Ki was 2.9 nM.

As to `CN(CCCNC(=O)c1cccc(Cl)c1)Cc1ccccc1` [Compound 3.1.8, N-[3-(benzylmethylamino)propyl]-3-chlorobenzamide], the Ki on σ2 receptors (setting [5]) came out at 340 nM; at σ1 receptors [1], 10 nM. At σ1 receptors [2], the “Ratio σ2/σ1” value is reported as 34.

For `CCCN(CCC)CCc1ccc(OC)c(OCCc2ccccc2)c1.Cl` [NE-100, reference compound], the “effect of NE-100 by itself on dizocilpine-induced deficits, passive avoidance test” value with Male Swiss mice [3] is listed as “devoid of effect by itself”. Moreover, the “effect of NE-100 by itself on dizocilpine-induced deficits, Y-maze test” value in the experiment with Male Swiss mice [4] is recorded as “devoid of effect by itself”.

With `CN(CCC(=O)NCc1ccc(Cl)cc1Cl)Cc1ccccc1` [Compound 3.4d, N-(2,4-Dichlorobenzyl)-3-(benzylmethylamino)propanamide], the Ki came to 120 nM at σ2 receptors and 2.3 nM at σ1 receptors [1]. In addition, the “Ratio σ2/σ1” value on σ1 receptors [2] was found to be 52.

`CN(CCCNC(=O)c1cc(Cl)cc(Cl)c1)Cc1ccccc1` [Compound 3.1.26, N-[3-(benzylmethylamino)propyl]-3,5-dichlorobenzamide]: the figures for the Ki at σ2 receptors (setting [5]) and on σ1 receptors [1] were 48 nM and 23 nM, respectively. The “Ratio σ2/σ1” value on σ1 receptors [2] is 2.

Regarding `CN(CCNC(=O)c1ccc([N+](=O)[O-])cc1)Cc1ccccc1` [Compound 3.1.37, N-(2-(benzyl(methyl)amino)ethyl)-4-nitrobenzamide], the Ki turned out to be 1400 nM on σ2 receptors (setting [5]) and 3.6 nM at σ1 receptors [1].

`CN(CCC(=O)NCc1ccc([N+](=O)[O-])cc1)Cc1ccccc1` [Compound 3.4b, N-(4-Nitrobenzyl)-3-(benzylmethylamino)propanamide]: the Ki is 6500 nM on σ2 receptors; 1.3 to 3.6 nM and 2.3 nM on σ1 receptors [1].

With `CN(CCCNC(=O)c1cccc(Br)c1)Cc1ccccc1` [Compound 3.1.21, N-[3-(benzylmethylamino)propyl]-3-bromobenzamide], the figures for the Ki on σ2 receptors (setting [5]) and at σ1 receptors [1] were 350 nM and 3.9 nM, respectively. Also, on σ1 receptors [2], the “Ratio σ2/σ1” value turned out to be 90.

With `CN(CCCNC(=O)c1ccc(Cl)cc1Cl)Cc1ccccc1` [Compound 3.1.24, N-[3-(benzylmethylamino)propyl]-2,4-dichlorobenzamide], the Ki at σ2 receptors (setting [5]) is 310 nM; at σ1 receptors [1] it was 1.3 to 3.6 nM and 1.3 nM. The “Ratio σ2/σ1” value at σ1 receptors [2] is reported as 238.

In the case of `CN(CCCNC(=O)c1ccc(Cl)cc1)CCc1ccccc1` [Compound 3.1.12, N-[3-(N-methyl-2-phenylethylamino)propyl]-4-chlorobenzamide], the Ki at σ2 receptors (setting [5]) amounted to 200 nM; on σ1 receptors [1], 4.3 nM. The “Ratio σ2/σ1” value at σ1 receptors [2] is on record as 47.

Turning to `CN(CCNC(=O)c1ccc(Cl)cc1)Cc1ccccc1` [Compound 3.1.9, N-[3-(2-(N-methylbenzyl)amino)ethyl]-4-chlorobenzamide], the Ki on σ2 receptors (setting [5]) is 850 nM.

Regarding `CN(CCNC(=O)c1ccc(C#N)cc1)Cc1ccccc1` [Compound 3.1.36, N-(2-(benzyl(methyl)amino)ethyl)-4-cyanobenzamide], the Ki at σ2 receptors (setting [5]) came to 170 nM; on σ1 receptors [1], 1.2 nM.

In the case of `CN(CCC(=O)NCc1ccc(C#N)cc1)Cc1ccccc1` [Compound 3.4c, N-(4-Cyanobenzyl)-3-(benzylmethylamino)propanamide], the Ki is 1800 nM at σ2 receptors and 5.6 nM on σ1 receptors [1]. Besides, at σ1 receptors [2], the “Ratio σ2/σ1” value stood at 321.

Turning to `CN(CCC(=O)NCc1ccc(Cl)cc1)Cc1ccccc1` [Compound 3.4a, N-(4-chlorobenzyl)-3-(benzylmethylamino)propanamide], the values for the Ki at σ2 receptors and on σ1 receptors [1] were 410 nM and 1.7 nM, respectively. In addition, the “Ratio σ2/σ1” value at σ1 receptors [2] stood at 241.
